Structures are written as SMILES. Values joined by “and” are separate entries in the source; they are usually repeats but may differ in a detail not shown here. Identical values can stand only once.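 How tested: cells in 96-well plates exposed to compound for 48 hours at five concentrations. GI50 is the concentration that inhibits growth by half. TGI marks complete inhibition of growth.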

Assay in all cases: DTP human tumour cell line panel, 48 h
For assay [1], the system named is DU-145 prostate.
Assay [2] deals with A549 NSCLC.
In assay [3] the test system is RPMI-8226 leukemia.
The subject of assay [4] is NCI/ADR-RES ovarian.
Assay [5] has as its system T-47D breast.
Assay [6] deals with LOX IMVI melanoma.
Assay [7] has as its system HS 578T breast.
Assay [8] deals with UACC-257 melanoma.
Assay [9] has as its system RXF 393 renal.
In assay [10] the test system is EKVX NSCLC.

Turning to `CN1CCN(c2ccc(Nc3ncc4cc(C#N)c(=O)n(C5CCCC5)c4n3)cc2)CC1`, the GI50 was 2.13 µM in assay [1]; 2.05 µM in assay [2]; 0.87 µM in assay [3]; 2.94 µM in assay [4]; 2.32 µM in assay [5]; 0.58 µM in [6]. Moreover, the GI50 was 0.807 µM in assay [7], 4.02 µM in assay [8], 0.477 µM in assay [9] and 2.93 µM in [10]. For the same molecule, the TGI in assay [1] was > 100 µM; in assay [2], > 100 µM; in assay [3], 5.33 µM; in assay [4] it was > 33 µM; in assay [5], > 100 µM; in assay [6], 3.51 µM. Also, the TGI in assay [7] is 6.07 µM; in [8] it was > 100 µM; in assay [9], 2.23 µM; in [10], > 100 µM.
Take `O=C1CSC(c2ccc(-c3nc4ccccc4s3)cc2)=N1`: the GI50 was 67 µM in assay [1]; 43.9 µM in assay [2]; 23.2 µM in assay [3]; 50.5 µM in assay [4]; 90.9 µM in assay [5]; 7.48 µM in [6]. The GI50 is 20.2 µM in assay [7], 30.8 µM in assay [8], 28.9 µM in assay [9] and 1.81 µM in assay [10]. Further, the TGI in [1] is > 100 µM; in assay [2] it was > 100 µM; in assay [3], 52.6 µM; in assay [4], > 100 µM; in assay [5], > 100 µM; in assay [6] it was 26.9 µM. The total growth inhibition concentration (TGI) in assay [7] is 59.7 µM; in assay [8], 75.7 µM; in assay [9] it was > 100 µM; in [10], 13.5 µM.
`Clc1ccc(N=CNc2ccc(-c3nc4ccccc4o3)cc2)cc1`: the GI50 was 14 µM in assay [1]; 38 µM in [2]; 23.7 µM in [3]; 7.03 µM in assay [4]; 13.1 µM in [5]; 12.5 µM in assay [6]. The GI50 in assay [7] is 1.89 µM; in assay [8] it was 32.4 µM; in [9] it was 25.8 µM; in [10], 0.241 µM. Further, the TGI in assay [1] was 38.2 µM; in assay [2] it was > 100 µM; in [3], > 100 µM; in assay [4], 48.1 µM; in assay [5], 52.1 µM; in assay [6], 25.8 µM. The TGI is 28 µM in assay [7], > 100 µM in assay [8], 80.6 µM in assay [9] and 2.84 µM in assay [10].
Regarding `CCCCCCCCCCCCOC1C(C(CC(=O)NCCN2CCCC2)NS(=O)(=O)c2cc(Cl)cc(Cl)c2)OC2OC(C)(C)OC21` (stereo not drawn), the GI50 in assay [1] was 1.86 µM and 1.79 µM; in [2] it was 2.5 µM; in assay [3], 1.23 µM; in assay [4], 2.04 µM; in assay [6], 1.9 µM; in assay [7] it was 2.23 µM. Further, the GI50 in assay [8] is 2.04 µM; in assay [9], 2.2 µM; in assay [10], 1.87 µM. The TGI in [1] is 3.45 µM and 3.23 µM; in assay [2], 6.41 µM; in assay [3], 3.21 µM; in assay [4], 4.08 µM; in [5] it was 4.46 µM and 2.04 µM; in assay [6] it was 3.5 µM. Further, the TGI in assay [7] is 4.16 µM; in assay [8], 4.84 µM; in assay [9] it was 4.72 µM; in assay [10] it was 3.49 µM.
As for `Cc1ccc(Nc2nnc(-c3ccc4c(c3)OCO4)o2)c(C)c1`, the TGI in [1], in [2], in assay [3], in [4], in assay [5] and in [6] was > 100 µM throughout. Moreover, the total growth inhibition concentration (TGI) in assay [7], in assay [8], in assay [9] and in [10] was > 100 µM each time.
With `COc1ccc2c(Oc3ccc(NC(=O)c4c(C)n(CC(C)(C)O)n(-c5ccccc5)c4=O)nc3)ccnc2c1`, the GI50 in [1] was 12.1 µM; in [2] it was 20.3 µM; in [3], 10.7 µM; in assay [4], 20.5 µM; in assay [5], 25.4 µM; in assay [6], 10.9 µM. The GI50 in assay [7] was 21.1 µM; in assay [8], 16.6 µM; in assay [9], 3.38 µM; in [10] it was 23.3 µM. Further, the total growth inhibition concentration (TGI) in assay [1] was > 100 µM; in assay [2] it was > 100 µM; in assay [3], > 79.3 µM; in [4], > 100 µM; in assay [5] it was > 100 µM; in assay [6], > 100 µM. For the same molecule, the total growth inhibition concentration (TGI) was > 100 µM in assay [7], > 100 µM in assay [8], 41.5 µM in assay [9] and > 80.3 µM in assay [10].
For the molecule `O=c1[nH]c(=O)n([C@H]2CCCO2)cc1F`, the GI50 in assay [1] is 910 µM; in [2], 625 µM; in assay [3], 666 µM; in assay [4], 3030 µM; in assay [5], 2610 µM; in assay [6], 1120 µM. The GI50 in [8] is 3540 µM; in assay [9], 1060 µM; in assay [10], > 2060 µM. Besides, the concentration for total growth inhibition (TGI) in assay [1], in assay [2], in assay [3], in assay [4], in assay [5] and in assay [6] was > 5000 µM each time. The TGI in [7] is > 4650 µM; in [8], > 5000 µM; in assay [9], > 5000 µM; in assay [10], > 5000 µM.
Turning to `O=C(NO)c1ccc(CN(c2cnccn2)c2cnccn2)cc1`, the GI50 in assay [1] was 9.26 µM; in [2], 13.9 µM; in assay [3], 8.68 µM; in assay [4], 10.3 µM; in assay [5], 9.55 µM; in [6], 3.69 µM. For the same molecule, the GI50 in assay [7] is 23.3 µM; in [8], 5.77 µM; in assay [9], 11.5 µM; in assay [10], 15.9 µM. In addition, the concentration for total growth inhibition (TGI) in assay [1] is > 100 µM; in [2], 36.5 µM; in [3], > 100 µM; in assay [4] it was 37.4 µM; in assay [5] it was 38.1 µM; in [6] it was 18.1 µM. Further, the TGI amounted to 96.8 µM in assay [7], 22.2 µM in assay [8], 25.1 µM in assay [9] and 36.7 µM in [10].

By GI50 is commonly meant the concentration at which growth is held to half of that of the control. For orientation: TGI means the concentration at which net growth stops. A lower TGI goes with more potent growth arrest.

(Values after PubChem BioAssay (NCI).)
